Test results taken from US20080214563A1, “Benzimidazole Thiophene Compounds As Plk Modulators” (priority 2005, published 2008).

Experiments:
HCT-116 = assay: Cell-Titer Glo Cell Growth Inhibition Assay, HCT116; format: cell-based; details: Homo sapiens, CellTiter-Glo, 72 h, read-out: CTG HCT116 IC50
Protocol: (§1) A549-L (human lung), BT474 (human breast), Colo 205 (human colon), H1299 (human lung), Hela (human cervix), HCT-116 (human colon), HN5 (human head and neck), HT29 (human colon), LNCap (human prostate), MCF7 (human breast), MDA-MB468 (human breast), MX-1 (human breast), RPMI 8226 (human peripheral blood), SKOV3 (human ovary) and P388 (murine leukemia) cell lines were cultured in RPMI1640 containing 10% fetal bovine serum at 37° C. in a 5% CO2 incubator. Cell lines were split into T75 flasks (Falcon #353136) two to three days prior to assay set up at density which yields approximately 70-80% confluency at time of harvest for assay. Cells were harvested using 0.25% trypsin with EDTA (Glibco/Invitrogen #25200-056), Cell counts were performed on cell suspensions using Trypan Blue exclusion staining, cells were then plated in 105 uL of culture media per well at the following densities in 96 well Costar #3916 black flat bottom plates: All human cell lines were plated at 500 cells/well. P388 were plated at 250 cells/well. All plates were placed at 5% CO2 37° C. overnight and then test compounds were added the following day. One plate of each cell type is treated with CellTiter-Glo (Promega #G7573) for a day 0 proliferation measurement and read as described below. The test compounds are prepared in clear U bottom polypropylene 96 well plates (Falcon #35-1190 with consecutive two fold dilutions. 9 uL of these dilutions was added into each well of the cell plates. The final concentration of DMSO in all wells is 0.15%. Cells were incubated at 37° C., 5% CO2 for 72 h. Following 72 h of incubation with compounds each plate was developed and read. CellTiter-Glo reagent was added to assay plates using a volume equivalent to the cell culture volume in the wells. Plates were shaken for approximately two minutes and incubated at room temperature for approximately 15 min and the chemiluminescent signal is read on the Victor V or Envison 2100 reader. […] Concentration of compound that inhibited 50% of cell growth (IC50) was analysis by 4 or 6 parameter fit of data using XLfit, value of no cell addition was subtracted from all samples for background.

Colo 205 = assay: Cell-Titer Glo Cell Growth Inhibition Assay, COLO205; format: cell-based; details: Homo sapiens, CellTiter-Glo, 72 h, read-out: CTG COLO205 IC50
Protocol: as §1

P388 = assay: Cell-Titer Glo Cell Growth Inhibition Assay, P388; format: cell-based, murine; details: Mus musculus, CellTiter-Glo, 72 h, read-out: CTG P388 IC50
Protocol: as §1

A549-L = assay: Cell-Titer Glo Cell Growth Inhibition Assay, A549-L; format: cell-based; details: Homo sapiens, CellTiter-Glo, 72 h, read-out: CTG A549-L IC50
Protocol: as §1

HT29 = assay: Cell-Titer Glo Cell Growth Inhibition Assay, HT29; format: cell-based; details: Homo sapiens, HT-29, CellTiter-Glo, 72 h, read-out: CTG HT29 IC50
Protocol: as §1

SKOV3 = assay: Cell-Titer Glo Cell Growth Inhibition Assay, SKOV-3; format: cell-based; details: Homo sapiens, SK-OV-3, CellTiter-Glo, 72 h, read-out: CTG SKOV-3 IC50
Protocol: as §1

MX-1 [1] = assay: Cell-Titer Glo Cell Growth Inhibition Assay, MX-1; format: cell-based; details: Homo sapiens, MX1, CellTiter-Glo, 72 h, read-out: CTG MX-1 IC50
Protocol: as §1

[2] = Intravenous pharmacokinetics in CD-1 mouse; format: in vivo; details: plasma, iv bolus, male CD-1 mouse, dose 1.9-7.4 mg/kg per compound (Table 3); for clearance: read-out: Plasma CL
Protocol: Preliminary investigation of the intravenous pharmacokinetics of compounds of invention were carried out in fed conscious CD-1 mouse. Compounds were formulated as 1-10 mg/kg, 5 mL/kg, 1-2 mg/mL solution (Table 3). Twenty one male mice (n=3 mice per time point) (˜30 g) received dose solution by bolus injection in the tail vein. The formulation for iv were either 20% beta cyclodextrin in saline pH 3.5-6 or PEG400:ethanol:saline (50:15:35 v/v). Blood samples (˜0.4 mL) were collected terminally by cardiac puncture following anesthetization in a CO2 chamber at 2, 15, 30, 60 min, 2, 4, and 6 h following iv administration. Blood samples were collected into tubes containing heparin and placed on crushed ice promptly after collection. Plasma was collected by centrifugation, frozen and stored at about −80° C. prior to analysis. Blood or plasma concentrations were determined by LC/MS/MS equipped with an electrospray ion source and using calibration curves for the appropriate matrix. The lower level of quantitation (LLQ) was 10 ng/mL. Blood or plasma concentration-time data were analyzed by non-compartmental methods using the computer program WinNonlin Professional (version 4.1). Area under the blood or plasma concentration-time curve (AUC) was calculated using the linear trapezoidal rule for each incremental trapezoid up to Cmax, and the log trapezoidal rule for each trapezoid thereafter. The terminal elimination rate constant (λz) was derived from the log-linear disposition phase of the concentration-time curve using least-squares regression analysis with visual inspection of the data to determine the appropriate number of terminal data points for regression analysis.
Following iv administration, the total body clearance (CL) was estimated. CL was calculated by dividing the dose by AUC(0−t). The clearance values were assigned as follows. Low <30 mL/min/kg, moderate 30-70 mL/min/kg, high >70 mL/min/kg. The assignment was based on hepatic blood flow i.e. hepatic blood flow of 0-30% low, 30-70% moderate and 70-100% high. The hepatic blood flow in mouse is ˜100 mL/min/kg.

PLK1 kinase domain = target: T1, PLK1 kinase domain (Homo sapiens, UniProt P53350); assay: Assay for Inhibition of PLK1 (33P SPA kinase assay); format: biochemical; details: 2 nM PLK1 kinase domain, 1 μM ATP; read-out: PLK1 pIC50 (converted)
T1 construct: made in house; host or cells: baculovirus infected T. ni cells
Protocol: All procedures were performed at 4° C. Cells were lysed in 50 mM HEPES, 200 mM NaCl, 50 mM imidazole, 5% glycerol; pH 7.5. The homogenate was centrifuged at 14K rpm in a SLA-1500 rotor for 1 h and the supernatant filtered through a 1.2 micron filter. The supernatant was loaded onto a Nickel chelating Sepharose (Amersham Pharmacia) column and washed with lysis buffer. Protein was eluted using 20%, 30% and 100% buffer B steps where buffer B is 50 mM HEPES, 200 mM NaCl, 300 mM imidazole, 5% glycerol; pH 7.5. Fractions containing PLK were determined by SDS-PAGE. Fractions containing PLK were diluted five-fold with 50 mM HEPES, 1 mM DTT, 5% glycerol; pH 7.5, then loaded on an SP Sepharose (Amersham Pharmacia) column. After washing the column with 50 mM HEPES, 1 mM DTT, 5% glycerol; pH 7.5, PLK was step eluted with 50 mM HEPES, 1 mM DTT, 500 mM NaCl; 5% glycerol; pH 7.5. PLK was concentrated using a 10 kDa molecular weight cutoff membrane and then loaded onto a Superdex 200 gel filtration (Amersham Pharmacia) column equilibrated in 25 mM HEPES, 1 mM DTT, 500 mM NaCl, 5% glycerol; pH 7.5. Fractions containing PLK were determined by SDS-PAGE. PLK was pooled, aliquoted and stored at −80° C. Samples were quality controlled using mass spectrometry, N-terminal sequencing and amino acid analysis.
B. Enzyme activity +/− inhibitors was determined as follows:
All measurements were obtained under conditions where signal production increased linearly with time and enzyme. Test compounds were added to white 384-well assay plates (0.1 μL for 10 μL and some 20 μl assays, 1 μL for some 20 μL assays) at variable known concentrations in 100% DMSO. DMSO (1-5% final, as appropriate) and EDTA (65 mM in reaction) were used as controls.
Reaction Mix (10 or 20 μL) was quickly added to each well immediately following addition of enzyme via automated liquid handlers and incubated 1-1.5 h at 22° C. The 20 μL enzymatic reactions were stopped with 50 μL of stop mix (50 mM EDTA, 4.0 mg/mL Streptavidin SPA beads in Standard Dulbecco's PBS (without Mg^2+ and Ca^2+), 50 μM ATP) per well. The 10 μL reactions were stopped with 10 μL of stop mix (50 mM EDTA, 3.0 mg/mL Streptavidin-coupled SPA Imaging Beads (“LeadSeeker”) in Standard Dulbecco's PBS (without Mg^2+ and Ca^2+), 50 μM ATP) per well. Plates were sealed with clear plastic seals, spun at 500×g for 1 min or settled overnight, and counted in Packard TopCount for 30 seconds/well (regular SPA) or imaged using a Viewlux imager (LeadSeeker SPA). Signal above background (EDTA controls) was converted to percent inhibition relative to that obtained in control (DMSO-only) wells.

HCT116 = assay: Methylene Blue Cell Growth Inhibition Assay, HCT116; format: cell-based; details: Homo sapiens, HCT-116, 72 h, read-out: MEB HCT116 IC50
Protocol: (§2) Normal human foreskin fibroblasts (HFF), human colon (HCT116, RKO), lung (H460, A549) and breast (MCF7) tumor cell lines were cultured in high glucose DMEM (Life Technologies) containing 10% fetal bovine serum (FBS) at 37° C. in a humidified 5% CO2, 95% air incubator. Cells were harvested using trypsin/EDTA, counted using a haemocytometer, and plated in 100 μL of culture media per well, at the following densities, in a 96-well tissue culture plate (Falcon 3075): HFF 5,000 cells/well, HCT116 3,000 cells/well, RKO 2,500 cells/well, H460 2,500 cells/well, A549 5,000 cells/well, MCF7 4,000 cells/well. The next day, compounds were diluted in low glucose DMEM containing 100 μg/mL gentamicin, at twice the final required concentration, from 10 mM stock solutions in DMSO. 100 μL/well of these dilutions were added to the 100 μL of media currently in the assay plates. Medium containing 0.6% DMSO was added to control wells. The final concentration of DMSO in all wells was 0.3%. Cells were incubated at 37° C., 5% CO2 for 72 h. Medium was removed by aspiration. Cell biomass was estimated by staining cells with 80 μL per well methylene blue (Sigma M9140, 0.5% in 50:50 ethanol:water), and incubation at room temperature for 30-60 min. Stain was removed by aspiration and the plates rinsed by immersion in water, then air-dried. To release stain from the cells, 100 μL of solubilization solution was added (1% N-lauroyl sarcosine, Sodium salt, Sigma L5125, in PBS), and plates were shaken gently for about 30 min. Optical density at 620 nm was measured on a microplate reader. Percent inhibition of cell growth was calculated relative to vehicle treated control wells. Concentration of compound that inhibits 50% of cell growth (IC50) was interpolated using nonlinear regression (Levenberg-Marquardt) and the equation, y=Vmax*(1−(x/(K+x)))+Y2, where “K” was equal to the IC50.

H460 = assay: Methylene Blue Cell Growth Inhibition Assay, H460; format: cell-based; details: Homo sapiens, NCI-H460, 72 h, read-out: MEB H460 IC50
Protocol: as §2

A549 = assay: Methylene Blue Cell Growth Inhibition Assay, A549; format: cell-based; details: Homo sapiens, 72 h, read-out: MEB A549 IC50
Protocol: as §2

RKO = assay: Methylene Blue Cell Growth Inhibition Assay, RKO; format: cell-based; details: Homo sapiens, 72 h, read-out: MEB RKO IC50
Protocol: as §2

MX-1 [3] = assay: Methylene Blue Cell Growth Inhibition Assay, MX-1; format: cell-based; details: Homo sapiens, MX1, 72 h, read-out: MEB MX-1 IC50
[4] = system: Normal human foreskin fibroblasts (HFF); assay: Methylene Blue Cell Growth Inhibition Assay, HFF; format: cell-based; details: Fibroblast, 72 h, read-out: MEB HFF IC50
Protocol: as §2

T1 sequence (P53350 21-346): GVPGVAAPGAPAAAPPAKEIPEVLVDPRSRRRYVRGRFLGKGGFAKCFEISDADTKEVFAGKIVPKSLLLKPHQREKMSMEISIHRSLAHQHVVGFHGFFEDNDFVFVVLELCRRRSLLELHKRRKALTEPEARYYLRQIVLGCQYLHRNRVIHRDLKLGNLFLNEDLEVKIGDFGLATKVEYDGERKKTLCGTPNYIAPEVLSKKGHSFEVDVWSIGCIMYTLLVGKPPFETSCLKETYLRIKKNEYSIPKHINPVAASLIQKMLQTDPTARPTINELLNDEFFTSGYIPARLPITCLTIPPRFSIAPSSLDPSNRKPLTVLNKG

Row | SMILES | IC50 (HCT-116) [nM] | IC50 (Colo 205) [nM] | IC50 (P388) [nM] | IC50 (A549-L) [nM] | IC50 (HT29) [nM] | IC50 (SKOV3) [nM] | IC50 (MX-1 [1]) [nM] | AUC(0-t) [2] [ng·h/mL] | clearance [2] [mL/min/kg] | IC50 (PLK1 kinase domain) [nM] | IC50 (HCT116) [nM] | IC50 (H460) [nM] | IC50 (A549) [nM] | IC50 (RKO) [nM] | IC50 (MX-1 [3]) [nM] | IC50 [4] [nM]
1 | C[C@@H](Oc1cc(-n2cnc3cc(-c4ccnc(N5CCN(C)CC5)c4)ccc32)sc1C(N)=O)c1ccccc1C(F)(F)F [Example 2, 5-{5-[2-(4-Methyl-1-piperazinyl)-4-pyridinyl]-1H-benzimidazol-1-yl}-3-({(1R)-1-[2-(trifluoromethyl)phenyl]ethyl}oxy)-2-thiophenecarboxamide] | < 100 | < 100 | 100 to 1000 | < 100 | < 100 | 100 to 1000 | < 100 | 2200 | 32.3 |  |  |  |  |  |  | 
2 | C[C@@H](Oc1cc(-n2cnc3cc(-c4ccnc(NC5CCN(C)CC5)c4)ccc32)sc1C(N)=O)c1ccccc1C(F)(F)F [Example 3, 5-(5-{2-[(1-Methyl-4-piperidinyl)amino]-4-pyridinyl}-1H-benzimidazol-1-yl)-3-({(1R)-1-[2-(trifluoromethyl)phenyl]ethyl}oxy)-2-thiophenecarboxamide] | < 100 | < 100 | < 100 | < 100 | < 100 | < 100 | < 100 | 1850 | 35.6 | < 10 |  |  |  |  |  | 
3 | C[C@@H](Oc1cc(-n2cnc3cc(-c4ccnc(N)c4)ccc32)sc1C(N)=O)c1ccccc1C(F)(F)F [Example 4, 5-[5-(2-Amino-4-pyridinyl)-1H-benzimidazol-1-yl]-3-({(1R)-1-[2-(trifluoromethyl)phenyl]ethyl}oxy)-2-thiophenecarboxamide] | < 100 |  |  |  |  |  |  | 1170 | 37.9 |  | < 100 | < 100 | < 100 | < 100 | < 100 | 100 to 1000
4 | C[C@@H](Oc1cc(-n2cnc3cc(-c4ccc(NC5CCN(C)CC5)nc4)ccc32)sc1C(N)=O)c1ccccc1Cl [Example 6, 3-{[(1R)-1-(2-Chlorophenyl)ethyl]oxy}-5-(5-{6-[(1-methyl-4-piperidinyl)amino]-3-pyridinyl}-1H-benzimidazol-1-yl)-2-thiophenecarboxamide] | < 100 | < 100 | 100 to 1000 | < 100 | < 100 | < 100 | < 100 | 2780 | 18.6 |  |  |  |  |  |  | 
